According to patent publication US8415351B2 (priority 2007, dated 2013):
pEC50: −log10 of the molar value.

What was measured:
[1] = tested on: genotype 1a-H77 subgenomic replicon cell line; assay: microbe, parasite or virus in culture; assay type: cell-based, HCV; details: Hepatitis C virus, read-out: EC50 1a
[2] = tested on: genotype 1b-Con1 subgenomic replicon cell line; assay: microbe, parasite or virus in culture; assay type: cell-based, HCV; details: Hepatitis C virus, read-out: EC50 1b

SMILES | pEC50 [1] | pEC50 [2]
COc1c(CCc2ccc(NS(C)(=O)=O)cc2)cc(N2CCC(=O)NC2=O)cc1C(C)(C)C [IA-L5-2-1.1, N-(4-(3-tert-butyl-5-(2,4-dioxotetrahydropyrimidin-1(2H)-yl)-2-methoxyphenethyl)phenyl)methanesulfonamide] | 6.00 to 7.00 | 7.00 to 8.00
CC(C)(C)c1cc(CCc2ccc(NS(C)(=O)=O)cc2)cc(N2CCC(=O)NC2=O)c1 [IA-L5-2-1.2, N-(4-(3-tert-butyl-5-(2,4-dioxotetrahydropyrimidin-1(2H)-yl)phenethyl)phenyl)methane sulfonamide] | 6.00 to 7.00 | 6.00 to 7.00
COc1c(C2CC2c2ccc(NS(C)(=O)=O)cc2)cc(N2CCC(=O)NC2=O)cc1C(C)(C)C (stereo not drawn) [IA-L8-1.1, N-(4-(2-(3-tert-butyl-5-(2,4-dioxotetrahydropyrimidin-1(2H)-yl)-2-methoxyphenyl)cyclopropyl)phenyl)methanesulfonamide] | 6.00 to 7.00 | 6.00 to 7.00
COc1c(-c2ccc3ccccc3c2)cc(-n2ccc(=O)[nH]c2=O)cc1C(C)(C)C [IB-L0-2.1, 1-(3-tert-butyl-4-methoxy-5-(naphthalen-2-yl)phenyl)pyrimidine-2,4(1H,3H)-dione] | < 6.00 | 6.00 to 7.00
COc1ccc2cc(-c3cc(-n4ccc(=O)[nH]c4=O)cc(C(C)(C)C)c3OC)ccc2c1 [IB-L0-2.2, 1-(3-tert-butyl-4-methoxy-5-(6-methoxynaphthalen-2-yl)phenyl)pyrimidine-2,4(1H,3H)-dione] | < 6.00 | < 6.00
COc1c(-c2ccc3cc(NS(C)(=O)=O)ccc3c2)cc(-n2ccc(=O)[nH]c2=O)cc1C(C)(C)C [IB-L0-2.3, N-(6-(3-tert-butyl-5-(2,4-dioxo-3,4-dihydropyrimidin-1(2H)-yl)-2-methoxyphenyl)naphthalen-2-yl)methanesulfonamide] | > 8.00 | > 8.00
COc1c(-c2ccc3nc(NS(C)(=O)=O)ccc3c2)cc(-n2ccc(=O)[nH]c2=O)cc1C(C)(C)C [IB-L0-2.5, N-(6-(3-tert-butyl-5-(2,4-dioxo-3,4-dihydropyrimidin-1(2H)-yl)-2-methoxyphenyl)quinolin-2-yl)methanesulfonamide] | 7.00 to 8.00 | > 8.00
COc1c(-c2nc3cc(NS(C)(=O)=O)ccc3o2)cc(-n2ccc(=O)[nH]c2=O)cc1C(C)(C)C [IB-L0-2.6, N-(2-(3-tert-butyl-5-(2,4-dioxo-3,4-dihydropyrimidin-1(2H)-yl)-2-methoxyphenyl)benzo[d]oxazol-5-yl)methanesulfonamide] | 6.00 to 7.00 | 7.00 to 8.00
COc1c(-c2ccc3c(c2)CC[C@]3(F)CNS(C)(=O)=O)cc(-n2ccc(=O)[nH]c2=O)cc1C(C)(C)C [IB-L0-2.10, (R)—N-((5-(3-tert-butyl-5-(2,4-dioxo-3,4-dihydropyrimidin-1(2H)-yl)-2-methoxyphenyl)-1-fluoro-2,3-dihydro-1H-inden-1-yl)methyl)methanesulfonamide] | > 8.00 | > 8.00
COc1c(-c2ccc3c(c2)CC=C3CN(C)S(C)(=O)=O)cc(-n2ccc(=O)[nH]c2=O)cc1C(C)(C)C [IB-L0-2.16, N-((6-(3-tert-butyl-5-(2,4-dioxo-3,4-dihydropyrimidin-1(2H)-yl)-2-methoxyphenyl)-1H-inden-3-yl)methyl)-N-methylmethanesulfonamide] | 6.00 to 7.00 | > 8.00
COc1c(N2CCc3cc(NS(C)(=O)=O)ccc3C2)cc(-n2ccc(=O)[nH]c2=O)cc1C(C)(C)C [IB-L0-2.19, N-(2-(3-tert-butyl-5-(2,4-dioxo-3,4-dihydropyrimidin-1(2H)-yl)-2-methoxyphenyl)-1,2,3,4-tetrahydroisoquinolin-6-yl)methanesulfonamide] | 7.00 to 8.00 | 7.00 to 8.00
COc1c(-c2ccc3c(c2)CC[C@@]3(F)CNS(C)(=O)=O)cc(-n2ccc(=O)[nH]c2=O)cc1C(C)(C)C [IB-L0-2.20, (S)—N-((5-(3-tert-butyl-5-(2,4-dioxo-3,4-dihydropyrimidin-1(2H)-yl)-2-methoxyphenyl)-1-fluoro-2,3-dihydro-1H-inden-1-yl)methyl)methanesulfonamide] | 6.00 to 7.00 | 7.00 to 8.00
